Data as given in patent US11142529B2 (priority 2013, dated 2021).

Assays:
GABAA receptors (α5β2γ2) = molecular target: T1, GABAA receptors (α5β2γ2) (Homo sapiens, UniProt P18507+P31644); test: Positive allosteric modulator activity, potentiation of EC20 GABA current in oocytes; type: cell-based; conditions: read-out: GABA α5 functional potentiation
T1 construct: expressed in transfected cells; host or cells: oocytes injected with a mix of alpha, beta and gamma cDNA (1:1:10 by weight)
Experimental: On day 1, 1 ng/32 nL of GABAA […] cDNA was injected into one oocyte. Test starts on day 2. The cDNA injected to the oocytes was a mix of alpha, beta and gamma, their ratio is 1:1:10 (by weight) and the total weight of the mixed 3 subunits to be injected in one oocyte was 1 ng in 32 nl volume. The injected oocytes can also be tested on day 3. In such case, the cDNA amount injected to the oocytes should be reduced by 20%.
1). 8 oocytes were placed in 8 chambers of OpusXpress and superfused with Modified Barth's Saline (MBS) at 3 mL/min. Glass electrodes back-filled with 3M KCl (0.5-3 megaohms) were used.
3). […] Oocytes were washed with MBS for 5-10 min.
2). […] Divide Itest by IGABA to obtain potentiation (%).
3). Discard all tested oocytes, new oocytes were used and the above steps 1) and 2) were repeated to test second concentration of the same compound. Each oocyte was used for only one concentration test for a single test compound. The steps were repeated for other test compounds.

α5β3γ2 GABAA receptors = molecular target: T2, α5β3γ2 GABAA receptors (Homo sapiens, UniProt P18507+P31644); test: Binding activity of test compounds on GABAAR ([3H]Ro15-1788 inhibition, Ltk cell membranes)
T2 construct: membranes
T2 sequence (P31644 32-462): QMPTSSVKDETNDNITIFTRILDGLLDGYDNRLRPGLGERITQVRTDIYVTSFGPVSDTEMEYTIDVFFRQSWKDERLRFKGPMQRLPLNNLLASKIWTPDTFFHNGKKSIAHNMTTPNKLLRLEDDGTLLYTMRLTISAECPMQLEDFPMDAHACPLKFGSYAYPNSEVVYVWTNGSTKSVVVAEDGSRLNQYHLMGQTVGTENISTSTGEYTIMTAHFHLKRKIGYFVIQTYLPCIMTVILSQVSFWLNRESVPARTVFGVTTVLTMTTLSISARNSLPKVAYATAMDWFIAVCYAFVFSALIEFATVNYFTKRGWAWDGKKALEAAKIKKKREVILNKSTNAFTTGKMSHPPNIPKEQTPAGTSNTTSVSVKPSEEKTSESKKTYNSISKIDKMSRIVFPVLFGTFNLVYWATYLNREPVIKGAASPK
T2 sequence (P28472 26-473 partner): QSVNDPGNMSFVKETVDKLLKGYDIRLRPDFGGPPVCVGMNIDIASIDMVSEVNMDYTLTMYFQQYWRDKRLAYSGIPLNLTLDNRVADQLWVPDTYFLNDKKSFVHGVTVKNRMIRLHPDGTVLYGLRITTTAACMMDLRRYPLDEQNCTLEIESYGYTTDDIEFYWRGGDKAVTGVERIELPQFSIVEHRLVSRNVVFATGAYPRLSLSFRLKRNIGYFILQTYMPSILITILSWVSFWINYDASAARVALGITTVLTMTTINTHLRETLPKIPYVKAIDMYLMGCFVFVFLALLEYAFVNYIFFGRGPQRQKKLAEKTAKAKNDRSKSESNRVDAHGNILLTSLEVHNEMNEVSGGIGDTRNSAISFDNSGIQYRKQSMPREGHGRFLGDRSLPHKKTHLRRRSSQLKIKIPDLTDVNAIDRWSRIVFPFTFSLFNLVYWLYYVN
T2 sequence (P18507 40-475): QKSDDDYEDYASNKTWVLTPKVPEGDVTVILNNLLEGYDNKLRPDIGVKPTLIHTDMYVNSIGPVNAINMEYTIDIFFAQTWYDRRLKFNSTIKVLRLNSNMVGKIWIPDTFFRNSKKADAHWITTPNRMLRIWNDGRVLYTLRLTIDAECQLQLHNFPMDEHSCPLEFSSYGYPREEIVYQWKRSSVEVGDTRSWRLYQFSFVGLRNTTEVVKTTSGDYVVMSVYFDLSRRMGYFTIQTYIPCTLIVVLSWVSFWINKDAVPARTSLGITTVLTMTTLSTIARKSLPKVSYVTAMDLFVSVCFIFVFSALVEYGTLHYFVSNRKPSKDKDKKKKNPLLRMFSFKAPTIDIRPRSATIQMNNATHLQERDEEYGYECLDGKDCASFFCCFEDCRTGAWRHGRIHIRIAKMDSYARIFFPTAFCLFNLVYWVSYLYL
Experimental: The binding was performed on Ltk cells stably expressing GABAA receptors: α1β1γ2, α2β3γ2, α3β3γ2 and α5β3γ2 (provided by Merck Co., NJ, USA). Cells were seeded in 100 mm culture plates in DMEM/F12 medium containing 10% serum and antibiotics in 5% C02 and allowed to grow for 1-2 days. GABAAR expression was then induced by dexamethasone as follows: 0.5 μM for 1 day for α5 containing and 2 μM for 3 days for α1, α2 and α3 containing GABAARs. After induction, cells were collected by scraping into Dulbecco's Phosphate buffered saline (DPBS, pH 7.4, Invitrogen, Carlsbad, Calif., USA) and centrifuged at 150×g for 10 min. The pellet was washed twice by re-suspension and centrifugation. The cell pellets from at least 5 different preps were combined, suspended in the binding assay buffer (50 mM KH2PO4; 1 mM EDTA; 0.2 M KCl, pH 7.4) and membranes prepared by sonication (3-5 times, 30 sec) using Branson Sonifier 150 (G.Heinmann, Germany). Protein content was determined using BCA assay (Bio-Rad Labs, Reinach, Switzerland) with Bovine Serum Albumin (Sigma Aldrich, St. Louis, Mo., USA) as the standard. Aliquots were prepared and stored at −20° C. for further use in binding assays.
Saturation binding curves were obtained by incubating membranes with increasing concentrations (0.01-8 nM) of [^3H]Ro15-1788 (Flumazepil, 75-85 Ci/mmol, PerkinElmer, MA, USA), with nonspecific binding measured in the presence of 10 μM diazepam.
All binding assays were performed for 1 h at 4° C. in assay buffer. The total assay volume was 0.5 ml containing 0.2 mg/ml protein for α5 and 0.4 mg/ml for α1, α2, and α3 containing GABAAR membranes. Incubations were terminated by filtration through GF/B filters using a 24-Cell Harvestor (Brandel, Gaithersburg, Md., USA) followed by 3 washes with ice-cold assay buffer. Filters were transferred to scintillation vials, 5 ml scintillation liquid added, vortex-mixed and kept in dark. Next day, radioactivity was obtained using a scintillation counter (Beckman Coulter, Brea, Calif., USA). All assays were performed in triplicate.
Saturation and inhibition curves were obtained using GraphPad Prism software (GraphPad Software, Inc., CA, USA).

T1 sequence (P31644 32-462): as the sequence (P31644 32-462) above
T1 sequence (P47870 25-512 partner limits assumed): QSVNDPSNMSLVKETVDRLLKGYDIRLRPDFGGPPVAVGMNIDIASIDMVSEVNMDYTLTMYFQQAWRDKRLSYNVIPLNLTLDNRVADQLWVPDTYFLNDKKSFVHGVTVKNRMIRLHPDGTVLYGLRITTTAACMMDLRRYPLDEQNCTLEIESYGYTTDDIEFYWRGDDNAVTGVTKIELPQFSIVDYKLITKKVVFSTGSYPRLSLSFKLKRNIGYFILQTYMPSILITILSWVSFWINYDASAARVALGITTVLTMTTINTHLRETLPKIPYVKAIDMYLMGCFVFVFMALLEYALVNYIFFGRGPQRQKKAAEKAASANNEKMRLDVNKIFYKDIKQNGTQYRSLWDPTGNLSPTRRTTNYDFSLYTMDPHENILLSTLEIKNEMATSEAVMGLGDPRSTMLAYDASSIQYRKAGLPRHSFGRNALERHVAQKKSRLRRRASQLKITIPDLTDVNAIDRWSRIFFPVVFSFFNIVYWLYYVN
T1 sequence (P18507 40-475): as the sequence (P18507 40-475) above

SMILES | activation at 0.1 µM (GABAA receptors (α5β2γ2)) | Ki (α5β3γ2 GABAA receptors)
CCOC(=O)c1ncn2c1Cc1c(C)nnn1-c1cc(OC)ccc1-2 [Compound 1] | 20 to 49% | < 99 nM
CCOC(=O)c1ncn2c1Cc1c(C)nnn1-c1cc(F)ccc1-2 [Compound 2] | 20 to 49% | < 99 nM
CCOC(=O)c1ncn2c1Cc1c(C)nnn1-c1ccccc1-2 [Compound 3] |  | < 99 nM
CCOC(=O)c1ncn2c1Cc1c(Cc3ccccc3)nnn1-c1cc(OC)ccc1-2 [Compound 4] |  | < 99 nM
CCOC(=O)c1ncn2c1Cc1c(Cc3ccccc3)nnn1-c1ccccc1-2 [Compound 5] |  | < 99 nM
CCOC(=O)c1ncn2c1Cc1c(Cc3ccccc3)nnn1-c1cc(F)ccc1-2 [Compound 6] |  | < 99 nM
CCOC(=O)c1ncn2c1Cc1c(C)cnn1-c1cc(OC)ccc1-2 [Compound 7] |  | < 99 nM
CCOC(=O)c1ncn2c1Cc1c(Cc3ccccc3)cnn1-c1cc(OC)ccc1-2 [Compound 8] |  | < 99 nM
CCOC(=O)c1ncn2c1Cc1c(COc3ccccc3)nnn1-c1cc(OC)ccc1-2 [Compound 9] | 20 to 49% | < 99 nM
CCOC(=O)c1ncn2c1Cc1c(COc3ccc(F)cc3)nnn1-c1cc(OC)ccc1-2 [Compound 10] |  | < 99 nM
CCOC(=O)c1ncn2c1Cc1c(COc3cccc(OC)c3)nnn1-c1cc(OC)ccc1-2 [Compound 11] | 20 to 49% | < 99 nM
CCOC(=O)c1ncn2c1Cc1c(COc3ccc(C)cc3C)nnn1-c1cc(OC)ccc1-2 [Compound 12] |  | < 99 nM
CCOC(=O)c1ncn2c1Cc1c(Cc3ccc(C)cc3)nnn1-c1cc(F)ccc1-2 [Compound 44] |  | < 99 nM
CCOC(=O)c1ncn2c1Cc1c(Cc3ccc(Cl)cc3)nnn1-c1cc(F)ccc1-2 [Compound 45] | 20 to 49% | < 99 nM
CCOC(=O)c1ncn2c1Cc1c(Cc3ccc(Cl)cc3)nnn1-c1ccccc1-2 [Compound 47] |  | < 99 nM
CCOC(=O)c1ncn2c1Cc1c(CN3CCCC3)nnn1-c1cc(OC)ccc1-2 [Compound 48] | 20 to 49% | < 99 nM
CCOC(=O)c1ncn2c1Cc1c(CN3CCOCC3)nnn1-c1cc(OC)ccc1-2 [Compound 49] |  | < 99 nM
CCOC(=O)c1ncn2c1Cc1c(CN(C)Cc3ccccc3)nnn1-c1cc(OC)ccc1-2 [Compound 51] |  | < 99 nM
CCOC(=O)c1ncn2c1Cc1c(Cc3cccc(Cl)c3)nnn1-c1cc(OC)ccc1-2 [Compound 52] |  | < 99 nM
CCOC(=O)c1ncn2c1Cc1c(Cc3cccc(C#N)c3)nnn1-c1cc(OC)ccc1-2 [Compound 53] |  | < 99 nM
CCOC(=O)c1ncn2c1Cn1c(COc3ccccc3)nnc1-c1cc(OC)ccc1-2 [Compound 55] | 20 to 49% | < 99 nM
CCOC(=O)c1ncn2c1Cn1c(COc3ccc(F)cc3)nnc1-c1cc(OC)ccc1-2 [Compound 56] |  | < 99 nM
CCOC(=O)c1ncn2c1Cn1c(COC)nnc1-c1cc(OC)ccc1-2 [Compound 103] |  | < 99 nM
CCOC(=O)c1ncn2c1Cn1c(Oc3ccccc3)nnc1-c1cc(OC)ccc1-2 [Compound 104] |  | < 99 nM
CCOC(=O)c1ncn2c1Cn1c(Oc3cccc(OC)c3)nnc1-c1cc(OC)ccc1-2 [Compound 105] |  | < 99 nM
CCOC(=O)c1ncn2c1Cn1c(Br)nnc1-c1cc(OC)ccc1-2 [Compound 106] |  | < 99 nM
CCOC(=O)c1ncn2c1Cc1c(COc3ccccc3)nnn1-c1cc(F)ccc1-2 [Compound 107] |  | < 99 nM
CCOC(=O)c1ncn2c1Cc1c(Cc3ccccc3Cl)nnn1-c1cc(OC)ccc1-2 [Compound 108] |  | < 99 nM
Cc1noc(-c2ncn3c2Cc2c(Cc4ccccc4)nnn2-c2cc(F)ccc2-3)n1 [Compound 109] | 20 to 49% | < 99 nM
Cc1noc(-c2ncn3c2Cc2c(C)nnn2-c2cc(F)ccc2-3)n1 [Compound 110] | 20 to 49% | 
